The values below come from patent US4183939A, “Glaucine analgesic method” (priority 1978, dated 1980).

Broadly, the ED50 is the dose at which the effect has come halfway, by size or by number of responders. For orientation: LD50 means the dose at which mortality reaches 50%.

Counter-ions that a name gives are not always drawn. Like-named read-outs stand apart in the source and are kept apart here.

For data set [1], the system named is mice. The conditions noted are these: cited from earlier work.
The conditions of data set [2]: in vivo; cited from earlier work.
For data set [3] the following is noted: in vivo; cited from earlier work. This is another data set of the same source.
Data set [4] is classed as in vivo. The note with it: intraperitoneal injection 45-60 minutes before testing.
Data set [5] has as its system mice. Nature of the data set: phenyl-p-quinone mouse writhing test (oral analgesic activity). The format is in vivo. The conditions noted are these: orally 30 minutes prior to phenyl-p-quinone challenge; for ED50: Mus musculus, po, 0.5 h. The method, then: Test compounds were evaluated for oral analgesic activity in the phenyl-p-quinone mouse writhing test of Hendershot & Forsaith, J. Pharmacol. Exptl. Therap. 125(3), 237 (1959). Test compounds were administered orally 30 minutes prior to the phenyl-p-quinone challenge. […]
(In general: Writhing tests count abdominal constrictions after an irritant is injected.)

The test system of data set [6] is mice. The format is in vivo. The conditions noted are these: for stimulation and Straub tail: increasing doses on two consecutive days, d,l-glaucine phosphate highest dose 100 mg/kg; for jumping behavior after naloxone (in words): naloxone 100 mg/kg intraperitoneal. The method, then:
Physical dependency liability was evaluated in mice by the procedure of Saelens, et al., Aoch. Int. Pharmacodynam, 190:213-218, 1971. In this procedure, mice are administered increasing doses of a test compound at intervals on two consectuive days. The last dosage on the second day is followed by intraperitoneal injection of the morphine antagonist, naloxone, at a dosage of 100 mg/kg, and the mice are observed for characteristic jumping behavior indicative of opiate withdrawals or morphine antaganism.

The subject of data set [7] is monkeys. Description: abuse potential: self-administration in codeine-habituated monkeys. The note with it: codeine 100 micrograms/kg per injection; d,l-glaucine phosphate substituted at 50, 100, 200 and 400 micrograms/kg per injection. The format is in vivo. The text has this:
The abuse potential of d,l-glaucine phosphate was studied in two monkeys in a procedure similar to that described by Deneau, et al., Psychopharmacologia 16(1):30-48, 1969.
In this procedure, the test monkeys are restrained and catheter inserted into the external jugular vein for injection of test substances in response to pressing a bar lever by the monkey. The test monkeys are first habituated to self-administer codeine at a rate of 100 micrograms/kilograms per injection. The self-administration rate of the two monkeys so trained and habituated was about 100 to 150 lever pushes per two hour session at the 100 microgram codeine level. […]

A short description of data set [8]: acute lethality (LD50) in mice. The format is in vivo. The note with it: mouse, in vivo, mortality within 72 hours.
Description: (§1) In other operations, various dosages of d,l-glaucine phosphate were administered to groups of mice by the oral route or by intraperitoneal injection, and the dosage which is lethal to 50 percent of the mice (LD50) was calculated from the mortality observations within 72 hours after administration.
Data set [9] deals with mice. Nature of the data set: acute lethality (LD50) in mice. The format is in vivo. The conditions noted are these: mortality within 72 hours.
Description: as §1
Data set [10] concerns mice. Nature of the data set: protecting mice against writhing induced by intraperitoneal injection of aqueous 0.1 percent hydrochloric acid. The format is in vivo. The conditions noted are these: subcutaneous, 15 minutes before HCl; for ED50: Mus musculus, sc. The method, then: l-Glaucine hydrobromide and d-glaucine hydrobromide were evaluated for analgesic activity in protecting mice against characteristic writhing induced by intraperitoneal injection of aqueous 0.1 percent hydrochloric acid, injected 15 minutes after subcutaneous injection of a test compound.

For data set [11], the system named is mice. Description: animal or person. The format is in vivo. The note with it: Mus musculus, sc, 0.5 h; first evaluation; subcutaneous injection 30 minutes before testing; read-out: ED50 (hot plate). On the procedure: The test compounds were administered by subcutaneous injection 30 minutes before testing.
Data set [12] can be described thus: plasma concentration levels of glaucine in guinea pigs. The conditions noted are these: for concentration at 0.25 h: 15 minutes after dosing, l-isomer orally 5 mg/kg, read-out: plasma glaucine level after 15 minutes. The format is in vivo. On the procedure:
Test compounds were administered to guinea pigs, and blood samples were collected at 15 minute intervals and analyzed to determine plasma concentration levels of glaucine.
Similar results were obtained with d- and l-glaucine phosphate, with l-glaucine phosphate producing from 3 to 6 or more times the levels obtained with the d-isomer throughout a 120 minute period.

The conditions of data set [13]: in vivo; cited from earlier work. This is another data set of the same source.
Setting [14] is: naloxone 100 mg/kg intraperitoneal after last dose on second day.

Turning to `COc1cc2c(cc1OC)-c1c(OC)c(OC)cc3c1[C@H](C2)N(C)CC3` [d-glaucine], the “hexenal and chloral hydrate sleep time” value in data set [1] is “prolongs hexenal and chloral hydrate sleep time”. Further, the “doses with analgesic activity” value in [2] was 50 to 100 mg/kg. The adrenolytic activity result in [3] is given as “adrenolytic activity”.

As to `COc1ccc2c3c1O[C@H]1[C@@H](O)C=C[C@H]4[C@@H](C2)N(C)CC[C@@]341` [codeine phosphate], the “ED50 (tail pinch)” value in data set [4] is listed as 6.8 mg/kg. This molecule also came in with an ED50 in data set [5] of 21.1 mg/kg. Besides, the “stimulation and Straub tail” value in data set [6] was “produced Straub tail and stimulation”. Further, in [6] (setting [14]), the “mice jumping after naloxone” value was 2 of 6 and the “total jumps after naloxone” value is 23 jumps total.

`COc1cc2c(cc1OC)-c1c(OC)c(OC)cc3c1C(C2)N(C)CC3` (racemic) [d,l-glaucine phosphate] came in with a 50% effective dose (ED50) in [5] of 23 mg/kg. In data set [7], the self-administration response rate is reported as 10-20 responses/two hour session. In addition, the “stimulation and Straub tail” value in data set [6] is “no Straub tail at the highest dose”. The “jumping behavior after naloxone (in words)” value in data set [6] (listed as d,l-Glaucine phosphate 1:11/2 salt) is given as “no jumping behavior in any of the eight mice tested”. Also, the median lethal dose (LD50) at 72 h in [8] (ip, intraperitoneal, read-out: LD50, intraperitoneal) was 178 mg/kg; in data set [8] (po, read-out: LD50, oral) it was at least 681 mg/kg.

In the case of `COc1cc2c(cc1OC)-c1c(OC)c(OC)cc3c1C(C2)N(C)CC3` (racemic) [d,l-glaucine lactate], the “oral ED50 (phenyl-p-quinone writhing)” value in [5] (30 min) is 25.5 mg/kg. In addition, the “jumping behavior after naloxone (in words)” value in [6] was “no jumping in any of the ten mice tested”. Besides, in data set [9] (intraperitoneal), the “LD50, intraperitoneal” value was determined as 178 mg/kg. Also, the “LD50, oral” value in data set [9] (oral, 4320 min) turned out to be 383 mg/kg.

Turning to `COc1cc2c(cc1OC)-c1c(OC)c(OC)cc3c1[C@H](C2)N(C)CC3` [d-glaucine hydrobromide], the figures for the 50% effective dose (ED50) in [10], in [11] and in data set [5] were 12.9 mg/kg, 23.8 mg/kg and 34 mg/kg, respectively. In data set [10], the “95 percent confidence limits of ED50 (HCl writhing)” value was in the range of 5.24 to 31.8 mg/kg. Besides, in [4], the “analgesic activity (tail pinch)” value is reported as “No analgesic activity was observed”. The “plasma level after initial peak, throughout the 90 minute period” value in data set [12] (after initial peak at 15 minutes, to 90 minutes) is 20-40 nanograms/ml. Besides, the concentration at 0.25 h in [12] (guinea pig, plasma, po) is about 0.05 µg/mL. The Tmax in data set [12] (guinea pig, plasma, read-out: time of initial peak plasma level (converted)) is 15 min. The antitussive activity result in data set [13] is given as “antitussive activity”.

Take `CCC(=O)O[C@](Cc1ccccc1)(c1ccccc1)[C@H](C)CN(C)C` [d-Propoxyphene·HCl]: the “ED50 (tail pinch)” value in data set [4] worked out at 16.7 mg/kg.

With `COc1ccc2c3c1O[C@H]1[C@@H](O)C=C[C@H]4[C@@H](C2)N(C)CC[C@@]341` [codeine], in data set [7], the self-administration response rate is 100-150 responses/two hour session.

With `COc1cc2c(cc1OC)-c1c(OC)c(OC)cc3c1[C@@H](C2)N(C)CC3` [l-glaucine hydrobromide], the ED50 in data set [10] was found to be 5.99 mg/kg; in [11] it was 12.7 mg/kg; in [5], 17 mg/kg. In data set [10], the “95 percent confidence limits of ED50 (HCl writhing)” value was 2.43 to 14.8 mg/kg. In addition, in data set [4], the “analgesic activity (tail pinch)” value was “No analgesic activity was observed”. For the same molecule, the concentration at 0.25 h in [12] (guinea pig, plasma, po) was about 0.04 µg/mL. Besides, in data set [12] (guinea pig, plasma, po, orally 5 mg/kg, end of 90 minutes test period, read-out: plasma glaucine level at end of test period), the concentration at 1.5 h is about 0.2 µg/mL. The Cmax in [12] (guinea pig, plasma, po, orally 5 mg/kg, one hour after administration, read-out: peak plasma glaucine level) was over 0.35 µg/mL. For the same molecule, in data set [12] (orally 5 mg/kg), the “time of peak plasma level” value is listed as “one”.
